{
  "source": "paper PMC8329300",
  "about": "“X-ray crystallography reveals molecular recognition mechanism for sugar binding in a melibiose transporter MelB” (Communications Biology, 2021)",
  "key": {"D59C MelBSt": {"molecular_target": "T1, D59C MelBSt (Salmonella typhimurium, UniProt P30878, D59C)", "T1 construct": "Cys scanning mutagenesis for the full-length MelBSt; His10 (C); made in house; host or cells: E. coli DW2", "T1 sequence (P30878 whole entry D59C)": "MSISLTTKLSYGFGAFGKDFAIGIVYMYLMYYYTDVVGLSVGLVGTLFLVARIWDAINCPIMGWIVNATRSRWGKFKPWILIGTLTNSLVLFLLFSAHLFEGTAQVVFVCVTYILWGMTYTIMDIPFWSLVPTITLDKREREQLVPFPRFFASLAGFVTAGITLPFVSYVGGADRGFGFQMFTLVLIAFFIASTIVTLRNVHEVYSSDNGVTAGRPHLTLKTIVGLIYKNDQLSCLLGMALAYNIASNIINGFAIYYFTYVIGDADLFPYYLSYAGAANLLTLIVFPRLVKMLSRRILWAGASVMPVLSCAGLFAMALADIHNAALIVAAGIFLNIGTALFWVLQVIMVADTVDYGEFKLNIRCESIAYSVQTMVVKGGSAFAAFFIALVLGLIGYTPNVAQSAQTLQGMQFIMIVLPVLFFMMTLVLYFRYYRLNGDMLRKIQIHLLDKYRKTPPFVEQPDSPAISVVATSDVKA", "experiment": "Trp→dansyl galactoside (D2G) FRET time trace and IC50 of D2G displacement (D59C)", "format": "binding", "conditions": "IC50 of galactoside displacement on bound D2G, α-NPG, 10 μM D2G", "description": "Fig. 1 Functional characterizations. a [^3H] Melibiose transport time course with intact cells. […] Inset, melibiose fermentation assay. Transformants with DW2 strain were plated on MacConkey agar plates containing 30 mM melibiose as the sole carbohydrate source and pH sensor neutral red, and incubated at 37 °C for 16–18 h before imaging. Number of tests = 3, from different batch of cells or duplicate measurements from same batch of sample. b Ligand binding by Trp→dansyl galactoside (D^2G) FRET assay. Purified proteins at 1 μM concentration in 20 mM Tris-HCl, pH 7.5, 100 mM CholCl, 10% glycerol, and 0.03% UDM were subjected to steady-state fluorescence measurements as described in Methods. On the time-trace, 1.8 μL of 1 mM D^2G at 10 μM was added into 180 μL of protein solutions at 1-min point, followed by supplying 10 μL of 5 mM DDMB or 5 mM α-NPG to displace the bound D^2G. For testing Na^+ or Li^+ binding, they are added into the solution before displacement with the second sugar. The structure of DDMB or α-NPG is shown in a chair form, and the carbon positions are labeled. Glycosidic bonds are indicated by arrows. Both are α-galactosides containing a substituent at the anomeric carbon-1. The data were from duplicate measurements.\nSteady-state fluorescence measurements were performed with an AMINCO-Bowman series 2 spectrometer with purified MelBSt at 1 μM in 20 mM Tris-HCl, pH 7.5, 100 mM CholCl, 10% glycerol, 0.03% UDM. Using an excitation wavelength at 290 nm, the emission intensity was recorded at 490 nm. On a time-trace, D^2G, NaCl or LiCl, then DDMB or α-NPG, were sequentially added into the protein solutions at a 1 min-interval. […] An identical volume of water was used for the control. The decrease in intensity after each addition of DDMB or α-NPG was corrected by the dilution effect and plotted as a function of the accumulated α-NPG concentrations or estimated DDMB concentrations. The 50% inhibitory concentration (IC50) was determined by fitting a hyperbolic function to the data (OriginPro 2020b). The final concentration of each detergent is estimated to be 234 μM, which is less than their CMC value for (DDMB, 295 μM).\nSupplementary Figure 2. Determination of DDMB binding affinity to MelBSt. (a) Titration with DDMB or a-NPG. MelBSt in 20 mM Tris-HCl, pH 7.5, 100 mM CholCl, 10% glycerol, 0.03% UDM without (1) or with 100 mM NaCl (2) were added with D2G at 10 μM at 1-min time point as indicated by triangle symbols on the Trp®dansyl FRET time trace. Starting at the 2-min of time point, DDMB or a-NPG solution was supplemented consecutively at a 1-min interval into MelBSt solution till no change in fluorescence intensity reached as indicated in star symbols. DDM and UDM were used as negative controls. 1% DDM or UDM was titrated into the mixture, The […]\nAt 2-min time point, additions of galactosides were colored in pink, a-NPG in yellow, UDM in blue, DDM in light blue, water in gray traces, respectively. (b) IC50 determination. The intensity decrease at each titration were corrected by the dilution effect, and plotted as a function of the accumulated DDMB or α-NPG concentration. The 50% inhibitory concentration (IC50) was determined by fitting the data to a hyperbolic function (OriginPro 2020b). Results are presented in […]\n(1 picture or pasted object on this page, not shown here)"}, "WT MelBSt [1]": {"molecular_target": "T2, WT MelBSt (Salmonella typhimurium, UniProt P30878)", "T2 construct": "Cys scanning mutagenesis for the full-length MelBSt; His10 (C); made in house; host or cells: E. coli DW2", "experiment": "biochemical", "format": "binding", "conditions": "for Kd: Kd of substrate binding, α-NPG, ITC 25 °C", "description": "All ITC ligand-binding assays were performed with the TA Instruments (Nano-ITC device) at 25 °C. In a typical experiment, the titrand (MelBSt) in the ITC sample cell was titrated with the specified titrant (placed in the Syringe) by an incremental injection of 2-µL aliquots at an interval of 300 s at a constant stirring rate of 250 r.p.m. All samples were degassed using a TA Instruments Degassing Station (model 6326) for 15 min prior to the titration. Data processing was performed with the NanoAnalyze (version 3.6.0 software) provided with the ITC equipment. The normalized heat changes were subtracted from the heat of dilution elicited by last few injections, where no further binding occurred; the corrected heat changes were plotted against the molar ratio of titrant versus titrand. The values for association constant (Ka) value were determined by fitting the data with a one-site independent-binding model. At most cases, the binding stoichiometry (N) number was fixed to 1 since it is a known parameter, which can restrain the data fitting and achieve more accurate results. The dissociation constant Kd = 1/Ka.\nSupplementary Figure 1. ITC measurements. ITC measurements were performed at 25 °C as described in Methods. (a) Binding thermography. For all tests, ligands and proteins are buffer- […]\n(1 picture or pasted object on this page, not shown here) […]\nmatched. For melibiose binding measurements, a solution of 80 mM or 10 mM in the absence or presence of NaCl at 100 mM, was injected into the ITC sample cell containing the WT MelBSt at 80 μM without or with 100 mM NaCl, respectively. With the D59C mutant, […] was used. For α-NPG binding measurements, 0.5 mM or 0.4 mM solution was used to titrate the WT or D59C mutant at 50 μM in the absence or presence or 100 mM NaCl, respectively. For the Na+ or Li+ binding measurements, 5 mM or 2 mM solution was used to titrate WT MelBSt at 80 μM without or with 50 mM melibiose, respectively; 40 mM solutions was used to titrate the D59C mutant. (b) binding isotherm. Curve fit was carried out with a one-site independent-binding model included in the NanoAnalyze software (version 3.6.0)."}, "WT MelBSt [2]": {"molecular_target": "T2, WT MelBSt", "conditions": "ITC 25 °C, data from publication or averaged with more tests, read-out: Kd of substrate binding, Melibiose, cited from earlier work"}},
  "note": "Like-named read-outs stand apart in the source and are kept apart here.",
  "data": [
    {"smiles": "O=[N+]([O-])c1ccc(OC2OC(CO)C(O)C(O)C2O)cc1", "note": "[α-NPG, 4-nitrophenyl-α-D-galactopyranoside]", "values": [
      {"measurement": "IC50", "setting": "D59C MelBSt; Apo", "result": "22.1 ± 5.75", "unit": "µM"},
      {"measurement": "IC50", "setting": "D59C MelBSt; Na+ (100 mM)", "result": "21.3 ± 1.67", "unit": "µM"},
      {"measurement": "Kd", "setting": "WT MelBSt [1]; Apo", "result": "43.2 ± 0.62", "unit": "µM"},
      {"measurement": "Kd", "setting": "WT MelBSt [1]; Na+ (100 mM)", "result": "25.7 ± 4.42", "unit": "µM"},
      {"measurement": "greater affinity compared to the native substrate melibiose", "setting": "WT MelBSt [1]; from Table 1", "result": 100, "unit": "fold"}
    ]},
    {"smiles": "OC[C@H]1O[C@H](OCC2O[C@@H](O)[C@H](O)[C@@H](O)[C@@H]2O)[C@H](O)[C@@H](O)[C@H]1O", "note": "(stereo partly shown) [Melibiose]", "values": [
      {"measurement": "Kd", "setting": "WT MelBSt [2]; Apo", "result": "9280 ± 230", "unit": "µM"},
      {"measurement": "Kd", "setting": "WT MelBSt [2]; Na+ (100 mM)", "result": "1090 ± 60", "unit": "µM"}
    ]}
  ]
}
